Source: PMC12446476 (Nature Communications, 2025)
Where two headings read alike, the source gives them in different places.

System: N. gonorrhoeae
Assay: MIC determination, Etest
Assay type: cell-based, Neisseria gonorrhoeae
Conditions: for MIC: Neisseria gonorrhoeae, comparator antibiotics, read-out: Minimum inhibitory concentration
Excerpt: The 2024 WHO N. gonorrhoeae reference strains were used for quality control. Only whole MIC doubling dilutions are reported. Clinical breakpoints or the epidemiological cutoff (ECOFF, to indicate azithromycin resistance) from EUCAST (v14.0, https://www.eucast.org/clinical_breakpoints) were used to classify isolates as antimicrobial susceptible or resistant. […] Two times the standard inoculum defined by CLSI was used to establish consistent growth in untreated control samples for some strains. In vitro time-kill assays were performed according to CLSI guidelines[65] using Columbia Broth (BD Difco) supplemented with 1% IsoVitaleX Enrichment (BD). Viable bacterial counts were generated by plating 10-fold serially diluted samples on GC agar plates containing 1% IsoVitaleX Enrichment (BD).

CN[C@@H]1[C@H](O)[C@H](NC)[C@H]2O[C@@]3(O)C(=O)C[C@@H](C)O[C@H]3O[C@@H]2[C@H]1O [Spectinomycin]
16 µg/mL: MIC (clinical N. gonorrhoeae isolate 50, Sweden 2023) | MIC (clinical N. gonorrhoeae isolate 52, Sweden 2023) | MIC (clinical N. gonorrhoeae isolate 54, Sweden 2023) | MIC (clinical N. gonorrhoeae isolate 55, Sweden 2023) | MIC (clinical N. gonorrhoeae isolate 60, Sweden 2023) | MIC (clinical N. gonorrhoeae isolate 63, Sweden 2023) | MIC (clinical N. gonorrhoeae isolate 64, Sweden 2023) | MIC (clinical N. gonorrhoeae isolate 65, Sweden 2023) | MIC (clinical N. gonorrhoeae isolate 66, Sweden 2023) | MIC (clinical N. gonorrhoeae isolate 67, Sweden 2023) | MIC (clinical N. gonorrhoeae isolate 68, Sweden 2023) | MIC (clinical N. gonorrhoeae isolate 69, Sweden 2023) | MIC (clinical N. gonorrhoeae isolate 71, Sweden 2023) | MIC (clinical N. gonorrhoeae isolate 73, Sweden 2023) | MIC (clinical N. gonorrhoeae isolate 74, Sweden 2023) | MIC (clinical N. gonorrhoeae isolate 77, Sweden 2023) | MIC (clinical N. gonorrhoeae isolate 78, Sweden 2023) | MIC (clinical N. gonorrhoeae isolate 80, Sweden 2023) | MIC (clinical N. gonorrhoeae isolate 81, Sweden 2023) | MIC (clinical N. gonorrhoeae isolate 82, Sweden 2023) | MIC (clinical N. gonorrhoeae isolate 84, Sweden 2023) | MIC (clinical N. gonorrhoeae isolate 88, Sweden 2023) | MIC (clinical N. gonorrhoeae isolate 89, Sweden 2023) | MIC (clinical N. gonorrhoeae isolate 90, Sweden 2023) | MIC (clinical N. gonorrhoeae isolate 93, Sweden 2023) | MIC (clinical N. gonorrhoeae isolate 95, Sweden 2023) | MIC (clinical N. gonorrhoeae isolate 97, Sweden 2023) | MIC (clinical N. gonorrhoeae isolate 100, Sweden 2023)
4 µg/mL: MIC (clinical N. gonorrhoeae isolate 91, Sweden 2023) | MIC (clinical N. gonorrhoeae isolate 98, Sweden 2023) | MIC (clinical N. gonorrhoeae isolate 99, Sweden 2023)
R: AMR phenotype (susceptibility category, EUCAST) (WHO O)
8 µg/mL: MIC (clinical N. gonorrhoeae isolate 51, Sweden 2023) | MIC (clinical N. gonorrhoeae isolate 53, Sweden 2023) | MIC (clinical N. gonorrhoeae isolate 56, Sweden 2023) | MIC (clinical N. gonorrhoeae isolate 57, Sweden 2023) | MIC (clinical N. gonorrhoeae isolate 58, Sweden 2023) | MIC (clinical N. gonorrhoeae isolate 59, Sweden 2023) | MIC (clinical N. gonorrhoeae isolate 61, Sweden 2023) | MIC (clinical N. gonorrhoeae isolate 62, Sweden 2023) | MIC (clinical N. gonorrhoeae isolate 70, Sweden 2023) | MIC (clinical N. gonorrhoeae isolate 72, Sweden 2023) | MIC (clinical N. gonorrhoeae isolate 75, Sweden 2023) | MIC (clinical N. gonorrhoeae isolate 76, Sweden 2023) | MIC (clinical N. gonorrhoeae isolate 79, Sweden 2023) | MIC (clinical N. gonorrhoeae isolate 83, Sweden 2023) | MIC (clinical N. gonorrhoeae isolate 85, Sweden 2023) | MIC (clinical N. gonorrhoeae isolate 86, Sweden 2023) | MIC (clinical N. gonorrhoeae isolate 87, Sweden 2023) | MIC (clinical N. gonorrhoeae isolate 92, Sweden 2023) | MIC (clinical N. gonorrhoeae isolate 94, Sweden 2023) | MIC (clinical N. gonorrhoeae isolate 96, Sweden 2023)
S: AMR phenotype (susceptibility category, EUCAST) (WHO F) | AMR phenotype (susceptibility category, EUCAST) (WHO H) | AMR phenotype (susceptibility category, EUCAST) (WHO K) | AMR phenotype (susceptibility category, EUCAST) (WHO L) | AMR phenotype (susceptibility category, EUCAST) (WHO M) | AMR phenotype (susceptibility category, EUCAST) (WHO P) | AMR phenotype (susceptibility category, EUCAST) (WHO Q) | AMR phenotype (susceptibility category, EUCAST) (WHO R) | AMR phenotype (susceptibility category, EUCAST) (WHO S2) | AMR phenotype (susceptibility category, EUCAST) (WHO U) | AMR phenotype (susceptibility category, EUCAST) (WHO V) | AMR phenotype (susceptibility category, EUCAST) (WHO X) | AMR phenotype (susceptibility category, EUCAST) (WHO Y) | AMR phenotype (susceptibility category, EUCAST) (WHO Z)
